According to patent US11834401B2, “Treating and preventing diseases by modulating cell mechanics” (THE JOHNS HOPKINS UNIVERSITY, priority 2013, dated 2023):

Assays:
myosin II = molecular target: T1, myosin II (Dictyostelium discoideum, UniProt P08799); assay: Myosin II cortical localization by SIM, TIRF and confocal imaging; type: cell-based
T1 construct: expressed in transfected cells; host or cells: Dictyostelium discoideum myoII null cells rescued with GFP-myosin II
Procedure: Micropipette aspiration was used for cortical tension and creep response measurements. Confocal imaging was performed on a Zeiss 510 Meta with a 63× (numerical aperture [NA] 1.4) objective (Carl Zeiss, Jena, Germany). Epifluorescence and TIRF imaging was performed in a 22° C. temperature controlled room with an Olympus IX81 microscope using a 40× (NA 1.3) or 60× (NA 1.49) objective and a 1.4× optovar (Olympus, Center Valley, Pa.), as previously described. Image analysis was performed with ImageJ (rsb.info.nih.gov/ij).
Imaging conditions during primary screen are described above. All other image analysis was performed as previously described (Kee Y S, et al., 2012). Cells were transferred from Petri dishes (with 0.1% DMSO incubation in growth media of 4 hrs) to imaging chambers and allowed to adhere for 20 min in growth media with 0.1% DMSO. After the cells adhered, the growth media was replaced with 2-(N-morpholino)ethanesulfonic acid (MES) starvation buffer (50 mM MES, pH 6.8, 2 mM MgCl2, 0.2 mM CaCl2) with 0.1% DMS. Confocal imaging was performed on aZeiss 510 Meta with a 63× (numerical aperture [NA] 1.4) objective (Carl Zeiss, Jena, Germany). Epifluorescence and TIR imaging was performed in a 22° C. temperature controlled room with an Olympus IX81 microscope using a 40× (NA 1.3) or 60× (NA […]) objective and a 1.4× optovar (Olympus, Center Valley, Pa.), as previously described. Image analysis was performed with ImageJ (rsb.info.nih.gov/ij). Many data sets were independently analyzed by multiple investigators.

human myosin IIA = molecular target: T2, human myosin IIA (Homo sapiens, UniProt P35579); assay: In vitro myosin assembly assay; type: biochemical; details: n=3
T2 construct: human myosin IIA (residues 1722-1960); 6xHis (N); mCherry (N); made in house; host or cells: E. coli BL-21 Star (DE3)
T2 sequence (P35579 1722-1960): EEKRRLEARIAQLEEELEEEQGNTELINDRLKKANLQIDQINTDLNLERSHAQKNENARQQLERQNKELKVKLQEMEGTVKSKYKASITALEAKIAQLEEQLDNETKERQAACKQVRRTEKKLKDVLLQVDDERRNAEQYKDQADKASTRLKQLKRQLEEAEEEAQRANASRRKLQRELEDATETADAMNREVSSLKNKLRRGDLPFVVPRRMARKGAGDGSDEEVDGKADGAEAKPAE
Source text: The sedimentation assays were used to assess myosin II assembly in cells. The assembly assay used purified proteins (N-terminal 6×His tag (SEQ ID NO: 1), fused to the mCherry fluorophore, fused to the assembly domains of Dictyostelium myosin II (residues 1533-1823), human myosin IIA (residues 1722-1960), and human myosin IIB (residues 1729-1976), and 6×His-tagged (SEQ ID NO: 1) fused Dictyostelium 14-3-3). Purified chicken nonmuscle IIB heavy meromyosin (HMM) was used for in vitro motility.
Bacterial expression plasmids coding for an N-terminal 6×His tag (SEQ ID NO: 1), fused to the mCherry fluorophore, fused to the assembly domains of Dictyostelium myosin II (residues 1533-1823), human myosin IIA (residues 1722-1960), or human myosin IIB (residues 1729-1976) were generated using standard cloning techniques.
In vitro assembly of myosin was conducted according to the method of Zhou et al, 2010 (Zhou Q et al., 2010), with a number of modifications. The protein concentration for each species in the tube was increased to […] to ensure that the smaller protein was adequately visible by Coomassie Blue staining, and the incubation time and temperature was adjusted to 30 min at the physiological temperature for each myosin species (22° C. for Dictyostelium myosin, 37° C. for human myosins). These temperatures were also used during the centrifugation step.

[1] = system: NLS-tdTomato expressing Dictyostelium cells
Procedure: NLS-tdTomato expressing Dictyostelium cells were challenged with […] compounds from the ChemBridge Divert-SET library and imaged over three days. Raw data was segmented by CIMPAQ, a designed analytical platform, which rank ordered hits based on their cytokinesis or mitotic inhibitory activity, or lethality. Hits were confirmed through a dose-dependent secondary screening.
Ax3::NLS-tdTomato cells were plated on 384-well COP plates with a MicroFloSelect microplate dispenser (BioTek, Winooski, Vt.) at volumes of 80 μl with a cell concentration of 1000 cells/ml for the 24- and 48-hr time points and at the same volume with a cell concentration of 220 cells/ml for the 72-hr time point. Each plate contained four rows of untreated cells with 0.2% DMSO. For the remaining wells, […] of each small molecule maintained at the Johns Hopkins ChemCORE facility, was added, with a final DMSO concentration of 0.2%. Almost half of the ChemBridge Divert-SET library, which is a 50,000 compound chemical diversity library, was screened over a three-day period on a Becton Dickinson Pathway 855 Bioimager System using a 20× objective (NA 0.75). Each image consisted of a montage of four images collected around the center of the well, resulting in a total size of 1344×1024 pixels per image.
Secondary chemical screening was carried out in quadruplicate, with identical culturing conditions as to the primary screen. 14 mM stocks of each compounds dissolved in 100% DMSO were diluted to the following final concentrations: […], 3.5 nM, 35 nM, 350 nM, 3.5 μM, and 35 μM.
Raw image files from both the primary and secondary screening were processed through CIMPAQ (FIGS. 9E and 9F). The single wavelength fluorescence images were converted from 16-bit format to 8-bit format. The MATLAB Image Processing Toolbox was utilized to segment the images in order to identify the nuclei and cytoplasm. The number of nuclei within each segmented cell was quantified to produce a histogram of nuclei per cell for each image (FIG. 9G). All segmented cells that were coincident with the image edge were disregarded.
Image analysis using CIMPAQ: From the histogram of nuclei per cell count, the ratio of the number of multinucleate cells to the number of mononucleate cells and the ratio of the number of binucleate cells to the number of mononucleate cells were computed. Multinucleate cells are defined as cells that contain >2 nuclei. The distribution of both ratios across multiple wells were simultaneously visualized using a scatter plot, with the ratio of multinucleate cells to mononucleate cells plotted on the x-axis and the ratio of binucleate cells to mononucleate cells plotted on the y-axis (FIGS. 9H and 9I). Other information such as the average number of nuclei per cell, the mean nuclear area, and the normalized histogram with respect to total cell number were also computed.
Hit identification using CIMPAQ: Compounds that generate an increase in the number of multinucleate (>2 nuclei/cell) cells are considered cytokinesis inhibitors. Because nearly all cultured cells, including Dictyostelium, have a low background (typically <5% for WT) of non-mononucleate cells, CIMPAQ spreads the data for each sample by determining the ratio (bi:mono) of binucleate (2 nuclei/cell) to mononucleate cells and the ratio (multi:mono) of multinucleate (>2 nuclei/cell) to mononucleate cells. These two ratios then define a set of Cartesian coordinates, describing the effect of each compound on a given cell-line. The coordinates for each compound are plotted on a two-dimensional graph. CIMPAQ fits the control data to a two-dimensional Gaussian distribution (FIG. 9H) and determines the contour lines for two standard deviations (2SD), 3SD, etc. from the control mean (FIG. 9I).
Hit compounds are rank-ordered based on how many SDs away they are from the untreated wells.

T1 sequence (P08799 whole entry): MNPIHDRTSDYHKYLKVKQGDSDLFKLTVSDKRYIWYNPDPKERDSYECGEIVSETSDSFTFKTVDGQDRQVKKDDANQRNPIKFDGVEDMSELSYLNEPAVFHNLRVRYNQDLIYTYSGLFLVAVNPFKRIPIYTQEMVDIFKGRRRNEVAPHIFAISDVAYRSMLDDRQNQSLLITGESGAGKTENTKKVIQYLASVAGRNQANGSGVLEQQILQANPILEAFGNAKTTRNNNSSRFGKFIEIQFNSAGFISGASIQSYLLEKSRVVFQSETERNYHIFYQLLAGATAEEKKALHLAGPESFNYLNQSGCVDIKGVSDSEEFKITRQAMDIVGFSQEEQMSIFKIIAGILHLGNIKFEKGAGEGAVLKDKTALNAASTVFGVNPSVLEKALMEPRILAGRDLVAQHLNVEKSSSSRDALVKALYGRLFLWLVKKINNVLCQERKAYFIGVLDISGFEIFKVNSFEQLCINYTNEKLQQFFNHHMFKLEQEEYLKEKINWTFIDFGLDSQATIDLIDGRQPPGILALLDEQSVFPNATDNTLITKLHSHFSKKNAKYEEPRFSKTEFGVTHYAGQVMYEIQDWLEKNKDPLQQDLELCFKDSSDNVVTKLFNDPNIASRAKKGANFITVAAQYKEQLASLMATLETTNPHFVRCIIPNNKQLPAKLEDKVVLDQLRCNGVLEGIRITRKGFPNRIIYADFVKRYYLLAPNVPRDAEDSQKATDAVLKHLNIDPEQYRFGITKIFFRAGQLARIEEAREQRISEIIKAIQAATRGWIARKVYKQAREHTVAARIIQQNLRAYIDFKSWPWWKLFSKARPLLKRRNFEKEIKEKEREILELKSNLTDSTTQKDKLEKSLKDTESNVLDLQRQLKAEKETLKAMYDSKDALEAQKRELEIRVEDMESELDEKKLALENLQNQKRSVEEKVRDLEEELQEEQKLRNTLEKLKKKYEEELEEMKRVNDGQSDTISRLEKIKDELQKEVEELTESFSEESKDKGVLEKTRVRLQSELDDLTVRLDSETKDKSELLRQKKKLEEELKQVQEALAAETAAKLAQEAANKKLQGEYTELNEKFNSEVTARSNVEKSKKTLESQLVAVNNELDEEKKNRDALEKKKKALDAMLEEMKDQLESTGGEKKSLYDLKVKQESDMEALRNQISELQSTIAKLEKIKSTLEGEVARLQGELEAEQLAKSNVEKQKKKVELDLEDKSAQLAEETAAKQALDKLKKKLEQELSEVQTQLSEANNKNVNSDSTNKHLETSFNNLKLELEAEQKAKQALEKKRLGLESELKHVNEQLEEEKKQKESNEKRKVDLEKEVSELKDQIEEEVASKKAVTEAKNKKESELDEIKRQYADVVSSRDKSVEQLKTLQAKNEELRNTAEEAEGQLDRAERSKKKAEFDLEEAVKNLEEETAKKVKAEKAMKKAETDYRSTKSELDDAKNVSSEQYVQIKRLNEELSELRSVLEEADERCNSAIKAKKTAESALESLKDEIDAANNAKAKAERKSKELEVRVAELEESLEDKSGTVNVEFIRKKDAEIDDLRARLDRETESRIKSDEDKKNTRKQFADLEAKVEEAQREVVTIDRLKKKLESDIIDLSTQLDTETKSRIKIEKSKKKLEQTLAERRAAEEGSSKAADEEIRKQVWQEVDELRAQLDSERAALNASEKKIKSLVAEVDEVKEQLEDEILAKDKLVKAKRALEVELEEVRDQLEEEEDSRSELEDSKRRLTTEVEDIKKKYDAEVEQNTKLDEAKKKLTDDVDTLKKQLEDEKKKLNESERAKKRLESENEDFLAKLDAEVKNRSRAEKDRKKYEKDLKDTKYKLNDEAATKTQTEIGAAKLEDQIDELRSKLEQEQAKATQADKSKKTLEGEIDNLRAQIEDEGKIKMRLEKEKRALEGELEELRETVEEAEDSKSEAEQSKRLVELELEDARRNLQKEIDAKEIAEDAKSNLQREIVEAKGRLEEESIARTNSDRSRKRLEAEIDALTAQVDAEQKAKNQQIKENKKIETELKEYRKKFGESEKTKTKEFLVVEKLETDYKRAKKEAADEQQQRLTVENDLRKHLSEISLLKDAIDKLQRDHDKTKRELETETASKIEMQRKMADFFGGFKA

Structure (SMILES) | changes in myosin II cortical distribution (TIRF) (myosin II; 500 nM time course) | in vitro assembly vs DMSO control (human myosin IIA) | cytokinesis inhibition / cellular effect of a single component ([1]; compound alone) | time to significant localization of GFP-myosin II (myosin II; 500 nM) [min] | time for myosin II localization to revert to pre-treatment levels after removal (myosin II; 500 nM, washout) [min] | increase in myosin II localization at the cortex by TIRF (myosin II; 500 nM, within 10 min) [fold] | subset of cells with BTFs accumulated into ribbon-like rings (myosin II; TIRF) [%] | increase in myosin II at the cortex (myosin II; TIRF time course) [fold] | time for myosin II bipolar thick filaments to accumulate at the cortex (myosin II; TIRF time course) [min] | time to steady state of myosin II cortical accumulation (myosin II; TIRF time course) [min] | myosin II accumulation in cortexillin I deleted cells (myosin II; cortI::GFPmyo cells) | cortical enrichment of myosin II (cortex to cytoplasm) (myosin II; each degradation product tested) | lethality to Dictyostelium cells ([1]; 5000 nM)
Nc1ccc(Cl)c(Cl)c1 [3,4-DCA, 3,4-dichloroaniline] | Neither 3,4-DCA nor the urea result in changes in myosin II cortical distribution | unaffected | limited cellular effect | – | – | – | – | – | – | – | – | – | –
CC(=O)c1ccc(O)cc1 [4-HAP, 4-hydroxyacetophenone] | – | unaffected | – | ≤ 10 | ≤ 15 | 2 | 15 | 2.5 | ≤ 5 | 15 | abolished | 4-HAP alone drives myosin II relocalization | lethal
